The text below walks through data of patent US10556863B1, “Crystalline form of (R)-4-hydroxy-2-oxo-1-pyrrolidineacetamide, preparation method therefor and use thereof” (CHONGQING RUNZE PHARMACEUTICAL COMPANY LIMITED, priority 2016, dated 2020).

In general, solubility refers to the dissolved amount per volume that the medium holds.

Data set [1] is described as follows: solubility in water. The format is physicochemical.
Data set [2] in a line: variable-temperature powder X-ray diffraction, crystal form stability at high temperatures. The format is physicochemical. Particulars: heated from 30° C. to 80° C.; powder X-ray diffraction at 35, 45, 55, 65 and 75° C. The method, then: The crystalline form I of (R)-4-hydroxy-2-oxo-1-pyrrolidineacetamide of the invention was placed on a single crystal silicon sample stage, heated from 30° C. to 80° C., and subjected to powder X-ray diffraction measurement at 35° C., 45° C., 55° C., 65° C. and 75° C., respectively. […] It can be seen that the crystalline form I of (R)-4-hydroxy-2-oxo-1-pyrrolidineacetamide of the invention has good stability at high temperatures. When the crystalline form I of (R)-4-hydroxy-2-oxo-1-pyrrolidineacetamide of the invention is used for storage or formulation processing, the requirements on processing and storage temperatures are reduced.

The structures appear in SMILES notation. Entries after “also recorded” stand apart in the source; their conditions may differ.

With `NC(=O)CN1C[C@H](O)CC1=O` [crystalline form I, (R)-4-hydroxy-2-oxo-1-pyrrolidineacetamide], the solubility in data set [1] was at least 90 mg/mL. Further, the “crystal transformation on heating (stability at high temperatures)” value in data set [2] is “does not show a phenomenon of crystal transformation; also recorded: does not exhibit crystal transformation phenomenon”.
